Laboratory results from patent US5424456A, “N-arylalkylderivatives of 2-aminomethyl-2,3-dihydro-1,4-benzodioxine and the process of preparation thereof” (Vyzkumny Ustav Pro Farmacii A Biochemii s.p., priority 1991, dated 1995).

Tests used:
[1] = tested on: urinary bladder sphincter; test: Effect on the opening pressure of the urinary bladder sphincter; assay type: in vivo, rat; settings: rats, compared with prazosin or terazosin; for lowering of the opening pressure of the urinary bladder sphincter: corresponding doses
[2] = tested on: intraocular pressure; test: Effect on the intraocular pressure; assay type: in vivo, rabbit; settings: rabbits, topical intraocular administration
[3] = target: T1, α-adrenergic (Rattus norvegicus, UniProt P23944); test: α-adrenergic blocking activity, norepinephrine-induced contraction of helically cut rat aortic strip; settings: 37° C., cumulative doses, read-out: IC50 (concentration causing 50% relaxation)
T1 construct: helically cut rat aortic strip; from tissue; host or cells: rat aorta (helically cut strip)
T1 sequence (P23944 1-561): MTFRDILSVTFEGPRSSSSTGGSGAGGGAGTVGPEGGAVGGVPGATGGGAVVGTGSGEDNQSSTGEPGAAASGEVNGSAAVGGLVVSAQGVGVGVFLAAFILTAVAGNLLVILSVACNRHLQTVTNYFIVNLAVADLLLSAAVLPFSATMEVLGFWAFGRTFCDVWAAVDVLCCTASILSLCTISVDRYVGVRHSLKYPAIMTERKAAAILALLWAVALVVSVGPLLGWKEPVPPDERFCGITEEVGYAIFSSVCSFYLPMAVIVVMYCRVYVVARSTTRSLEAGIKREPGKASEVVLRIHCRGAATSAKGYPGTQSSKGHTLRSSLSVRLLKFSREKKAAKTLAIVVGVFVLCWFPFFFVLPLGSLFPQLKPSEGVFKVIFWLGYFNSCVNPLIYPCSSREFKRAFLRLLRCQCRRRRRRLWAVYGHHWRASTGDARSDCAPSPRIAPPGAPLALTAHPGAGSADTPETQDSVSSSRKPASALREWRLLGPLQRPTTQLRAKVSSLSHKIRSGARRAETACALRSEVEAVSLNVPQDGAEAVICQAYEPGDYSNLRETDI
Procedure: a) The α-adrenergic blocking activity of the compounds was tested using a helically cut rat aortic strip in a Krebs-Henselheit solution at 37° C., bubbled with a mixture of 95% O2 and 5% CO2. Norepinephrine induced contractions were detected isometrically. The compounds were added in cumulative doses and the relaxing activity was expressed in per cents of the maximum norepinephrine contraction.

IC50 [3] | SMILES | duration of action on opening pressure of the urinary bladder sphincter [1] | lowering of the opening pressure of the urinary bladder sphincter [1] | lowering of the intraocular pressure [2]
6 µM | COc1ccc(C(C#N)(CCCNCC2COc3ccccc3O2)C(C)C)cc1OC (racemic) [VUFB 17951, 5-(2,3-Dihydro-1,4-benzodioxin-2-ylmethylamino)-2-(3,4-dimethoxyphenyl)-2-isopropyl valeronitrile] | longer duration of action | lowered the opening pressure of the urinary bladder sphincter of rats in corresponding doses in the same extent as prazosin | lowered significantly the intraocular pressure
25 µM | Cc1ccccc1C(C#N)(CCCNCC1COc2ccccc2O1)C(C)C (racemic) [VUFB 17959, 5-(2,3-dihydro-1,4-benzodioxin-2-ylmethylamino)-2-isopropyl-2-(2-methylphenyl) valeronitrile] | longer duration of action | lowered the opening pressure of the urinary bladder sphincter of rats in corresponding doses in the same extent as prazosin | lowered significantly the intraocular pressure
